Data published in US10508109B2 (priority 2015, dated 2019).
Where two headings read alike, the source gives them in different places.

Key:
SUV39H2 = SUV39H2 (Homo sapiens (Human), UniProt Q9H5I1); conditions: read-out: IC50 (μM) Suv 39H2 assay; enzyme assay
A549 = experiment: Cell-based assay, anti-proliferative activity (Cell Counting Kit-8, 72 hours); conditions: Homo sapiens, read-out: IC50 (μM) A549
Summary of the method: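 Seed cells in 96-well format; add inhibitors; measure growth by CCK-8 at end of exposure; derive IC50.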

CCD-18Co = experiment: as above; conditions: Homo sapiens, read-out: IC50 (μM) CCD-18Co
Summary of the method: (§1)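 Seed cells in 96-well plates; add serially diluted inhibitor (1.5625 to 100 micro-M plus vehicle); incubate 72 hours; quantify viable growth by CCK-8 and calculate IC50.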

HCT-116 = experiment: as above; conditions: Homo sapiens, read-out: IC50 (μM) HCT-116
Summary of the method: as §1

PC14 = experiment: as above; conditions: Homo sapiens, read-out: IC50 (μM) PC14
Summary of the method: as §1

HFL1 = experiment: as above; conditions: Homo sapiens, read-out: IC50 (μM) HFL1
Summary of the method: as §1

[1] = A549 cells, Cell Counting Kit-8, 72 hours
[2] = CCD-18Co cells, Cell Counting Kit-8, 72 hours
[3] = HCT-116 cells, Cell Counting Kit-8, 72 hours
[4] = PC-14, PC14 cells, Cell Counting Kit-8, 72 hours
[5] = HFL1 cells, Cell Counting Kit-8, 72 hours

Chain of SUV39H2 (Q9H5I1 whole entry): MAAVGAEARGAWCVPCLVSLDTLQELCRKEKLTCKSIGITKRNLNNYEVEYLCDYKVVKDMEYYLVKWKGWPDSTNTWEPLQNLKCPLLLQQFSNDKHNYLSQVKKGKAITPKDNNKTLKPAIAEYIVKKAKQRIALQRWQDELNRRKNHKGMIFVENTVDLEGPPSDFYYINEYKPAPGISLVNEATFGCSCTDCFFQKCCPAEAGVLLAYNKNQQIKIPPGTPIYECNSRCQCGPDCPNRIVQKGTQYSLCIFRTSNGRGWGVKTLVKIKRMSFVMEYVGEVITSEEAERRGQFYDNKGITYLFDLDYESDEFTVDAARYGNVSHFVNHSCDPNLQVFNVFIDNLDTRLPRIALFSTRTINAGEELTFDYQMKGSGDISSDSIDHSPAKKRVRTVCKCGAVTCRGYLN

Compound	IC50 (SUV39H2) [µM]	IC50 (A549; [1]) [µM]	IC50 (CCD-18Co; [2]) [µM]	IC50 (HCT-116; [3]) [µM]	IC50 (PC14; [4]) [µM]	IC50 (HFL1; [5]) [µM]	IC50 (A549; A549, 72 h) [µM]	IC50 (CCD-18Co; CCD-18Co, 72 h) [µM]	IC50 (HCT-116; HCT-116, 72 h) [µM]	IC50 (PC14; PC-14, 72 h) [µM]	IC50 (HFL1; HFL1, 72 h) [µM]
COc1cc(OC)c(-c2cn3ccc(N4CCN(S(=O)(=O)C5CC5)CC4)nc3n2)cc1Cl [Example 146, 2-(5-chloro-2,4-dimethoxyphenyl)-7-[4-(cyclopropylsulfonyl)piperazin-1-yl]imidazo[1,2-a]pyrimidine]	0.0247	0.49	4.2	0.69	0.24	1.4	–	–	–	–	–
COc1cc(OC)c(-c2cn3ccc(C4=CCN(CCN5CCCCC5)CC4)cc3n2)cc1Cl [Example 147, 2-(5-chloro-2,4-dimethoxyphenyl)-7-(1-(2-(piperidin-1-yl)ethyl)-1,2,3,6-tetrahydropyridin-4-yl)imidazo[1,2-a]pyridine]	0.0295	7	6	7.3	5.9	8.7	–	–	–	–	–
COc1cc(OCCCN(C)C)c(-c2cn3ccc(N4CCC(NC(=O)OC(C)(C)C)CC4)cc3n2)cc1Cl [Example 148, tert-butyl (1-(2-{5-chloro-2-[3-(dimethylamino)propoxy]-4-methoxyphenyl}imidazo[1,2-a]pyridin-7-yl)piperidin-4-yl)carbamate]	0.0373	1.8	0.78	1.3	1.4	0.53	–	–	–	–	–
COc1cc(OC)c(-c2cn3ccc(N4CCC(CNS(=O)(=O)C5CC5)CC4)cc3n2)cc1Cl [Example 149, N-((1-(2-(5-Chloro-2,4-dimethoxyphenyl)imidazo[1,2-a]pyridin-7-yl)piperidin-4-yl)methyl)cyclopropanesulfonamide]	0.00672	2.5	4.8	2.3	2.4	1.9	–	–	–	–	–
COc1cc(OCCCN(C)C)c(-c2cn3ccc(N4CCC(N)CC4)cc3n2)cc1Cl [Example 150, 1-(2-{5-chloro-2-[3-(dimethylamino)propoxy]-4-methoxyphenyl}-imidazo[1,2-a]pyridin-7-yl)piperidin-4-amine]	0.035	2.3	2.4	2.1	2.2	0.86	–	–	–	–	–
COc1cc(OC)c(-c2cn3ccc(N)cc3n2)cc1Cl [Example 151, 2-(5-chloro-2,4-dimethoxyphenyl)imidazo[1,2-a]pyridin-7-amine]	0.00827	5.1	2.4	2.3	2.9	1.9	–	–	–	–	–
COC(=O)N1CCN(c2ccn3cc(-c4cc(Cl)c(OC)cc4OCCCN(C)C)nc3c2)CC1 [Example 152, methyl 4-(2-(5-chloro-2-(3-(dimethylamino)propoxy)-4-methoxyphenyl)-imidazo[1,2-a]pyridin-7-yl)piperazine-1-carboxylate]	0.0199	6.4	5.3	7.1	2.7	1.9	–	–	–	–	–
COc1cc(OC)c(-c2cn3ccc(N4CCNCC4)nc3n2)cc1Cl [Example 153, 2-(5-chloro-2,4-dimethoxyphenyl)-7-(piperazin-1-yl)imidazo[1,2-a]-pyrimidine]	0.0526	10	11	8.6	4.1	5.3	–	–	–	–	–
COc1cc(OCCCN(C)C)c(-c2cn3ccc(N4CCN(S(C)(=O)=O)CC4)cc3n2)cc1Cl [Example 155, 3-(4-chloro-5-methoxy-2-{7-[4-(methylsulfonyl)piperazin-1-yl]-imidazo[1,2-a]pyridin-2-yl}phenoxy)-N,N-dimethylpropan-1-amine]	0.0127	7.5	7.5	5.8	3.8	5.5	–	–	–	–	–
COc1cc(OCCCN(C)C)c(-c2cn3ccc(N4CCN(C(=O)C(C)(C)C)CC4)cc3n2)cc1Cl [Example 156, 1-(4-(2-(5-chloro-2-(3-(dimethylamino)propoxy)-4-methoxyphenyl)imidazo[1,2-a]pyridine-7-yl)piperazin-1-yl)-2,2-dimethylpropan-1-one]	0.0344	6.3	7.2	6.2	5.8	4.4	–	–	–	–	–
COc1cc(OC)c(-c2cn3ccc(NC(=O)CCNC(=O)OC(C)(C)C)cc3n2)cc1Cl [Example 157, tert-butyl (3-{[2-(5-chloro-2,4-dimethoxyphenyl)imidazo[1,2-a]pyridin-7-yl]amino}-3-oxopropyl)carbamate]	0.0628	7.5	7.1	6.8	6.2	4.7	–	–	–	–	–
COc1cc(OC)c(-c2cn3ccc(N4CCN(CCC(=O)NCCN(C)C)CC4)cc3n2)cc1Cl [Example 158, 3-(4-(2-(5-chloro-2,4-dimethoxyphenyl)imidazo[1,2-a]pyridin-7-yl)piperazin-1-yl)-N-(2-(dimethylamino)ethyl)propanamide]	0.00353	9.3	14	9.4	9.8	7.7	–	–	–	–	–
COC(=O)N1CCN(c2ccn3cc(-c4cc(Cl)c(OC)cc4OC)nc3n2)CC1 [Example 159, methyl 4-(2-(5-chloro-2,4-dimethoxyphenyl)imidazo[1,2-a]pyrimidin-7-yl)piperazine-1-carboxylate]	0.0157	2.7	3.7	3.2	4.7	3.4	–	–	–	–	–
COc1cc(OCCCN(C)C)c(-c2cn3ccc(N4CCN(S(=O)(=O)C5CC5)CC4)cc3n2)cc1Cl [Example 160, 3-(4-Chloro-2-{7-[4-(cyclopropylsulfonyl)piperazin-1-yl]imidazo[1,2-a]pyridin-2-yl}-5-methoxyphenoxy)-N,N-dimethylpropan-1-amine]	0.0277	1.4	2.9	1.2	1.9	1.5	–	–	–	–	–
COc1cc(OC)c(-c2cn3ccc(NC(=O)CNC(=O)OC(C)(C)C)cc3n2)cc1Cl [Example 161, tert-butyl (2-((2-(5-chloro-2,4-dimethoxyphenyl)imidazo[1,2-a]pyridin-7-yl)-amino)-2-oxoethyl)carbamate]	0.0379	8.8	7.8	7	8.7	8.4	–	–	–	–	–
COc1cc(OCCCN(C)C)c(-c2cn3ccc(N4CCC(NC(=O)C(C)(C)C)CC4)cc3n2)cc1Cl [Example 162, N-(1-(2-(5-chloro-2-(3-(dimethylamino)propoxy)-4-methoxyphenyl)-imidazo[1,2-a]pyridin-7-yl)piperidin-4-yl)pivalamide]	0.0211	2.8	5	3.3	2.1	2.1	–	–	–	–	–
COc1cc(OCCCN(C)C)c(-c2cn3ccc(N4CCC(NS(=O)(=O)C5CC5)CC4)cc3n2)cc1Cl [Example 163, N-(1-(2-(5-chloro-2-(3-(dimethylamino)propoxy)-4-methoxyphenyl)imidazo-[1,2-a]pyridin-7-yl)piperidin-4-yl)cyclopropanesulfonamide]	0.0206	6.4	5.6	5.9	3.4	2.7	–	–	–	–	–
COc1cc(OCCCN(C)C)c(-c2cn3ccc(N4CCC(NS(C)(=O)=O)CC4)cc3n2)cc1Cl [Example 164, N-(1-(2-(5-chloro-2-(3-(dimethylamino)propoxy)-4-methoxyphenyl)-imidazo[1,2-a]pyridin-7-yl)piperidin-4-yl)methanesulfonamide]	0.0211	10	7.2	9	8.8	8.6	–	–	–	–	–
CCCCCNC1CCN(c2ccn3cc(-c4cc(Cl)c(OC)cc4OCCCN(C)C)nc3c2)CC1 [Example 165, 1-(2-{5-chloro-2-[3-(dimethylamino)propoxy]-4-methoxyphenyl}imidazo-[1,2-a]pyridin-7-yl)-N-pentylpiperidin-4-amine]	0.0593	2.2	2.1	1.7	2.2	1.7	–	–	–	–	–
COc1cc(OC)c(-c2cn3ccc(NC(=O)CN)cc3n2)cc1Cl [Example 166, 2-amino-N-(2-(5-chloro-2,4-dimethoxyphenyl)imidazo[1,2-a]pyridin-7-yl)-acetamide]	0.031	–	–	–	–	–	7.1	7.9	6.1	6.5	22
COc1cc(OC)c(-c2cn3ccc(N4CCN(CCCN(C)C)C4=O)cc3n2)cc1Cl [Example 167, 1-(2-(5-chloro-2,4-dimethoxyphenyl)imidazo[1,2-a]pyridin-7-yl)-3-(3-(dimethylamino)propyl)imidazolidin-2-one]	0.0124	6.4	6.9	6.8	3.9	6.5	–	–	–	–	–
